Experimental findings from ChEMBL document CHEMBL1122575, “Dependence of beta-lactamase stability on substructures within beta-lactam antibiotics” (J Med Chem, 1984) are described below.

For series [1], the system named is Klebsiella aerogenes. The series is described as follows: Compound was evaluated for the antibacterial activity against Klebsiella aerogenes with strain K1; 100/>100. Format: functional.
For series [2], the system named is Escherichia coli. The series is described as follows: cCompound was evaluated for the antibacterial activity against Escherichia coli (RTEM+ organism); 0.4/0.2. Format: functional.
Series [3] relates to Escherichia coli. The series is described as follows: Compound was evaluated for the antibacterial activity against Escherichia coli (RTEM- organism); 0.1/0.4. Format: functional.
For series [4], the system named is Klebsiella aerogenes. The series is described as follows: Compound was evaluated for the antibacterial activity against Klebsiella aerogenes with strain K1-; 0.8/0.8. Format: functional.
Series [5] in a line: Relative hydrolysis rate (RHR) was evaluated against RTEM enzyme. Format: ADME.
For series [6], the system named is Escherichia coli. The series is described as follows: Compound was evaluated for the antibacterial activity against Escherichia coli (RTEM+organism) at 10e4/10e6 colony forming units; 25/100. Format: functional.
In series [7] the test system is Escherichia coli. Nature of the series: Compound was evaluated for the relative Vmax against Escherichia coli with strain 609 (beta-Lactamase-positive (LAC+). Format: ADME, organism-based. The conditions noted are these: in vivo.
Series [8] is described as follows: Compound was evaluated for the relative Vmax against RTEM enzyme. Format: ADME.
Series [9] in a line: Relative hydrolysis rate (RHR) was evaluated against K1 enzyme. Format: ADME.
In series [10] the test system is Escherichia coli. The series is described as follows: Compound was evaluated for the antibacterial activity against Escherichia coli (RTEM+organism). 10e4/10e6 colony forming units are observed; 3.1/25. Format: functional.
A further series has as its system Providencia rettgeri. Nature of the series: Compound was evaluated for the antibacterial activity against Providencia rettgeri with the strain beta-Lactamase-negative (LAC-). Format: functional.
Series [11] deals with Escherichia coli. Nature of the series: Relative hydrolysis rate (RHR) was evaluated against Escherichia coli with the strain RTEM. Format: ADME, organism-based.
The subject of series [12] is Staphylococcus aureus. Nature of the series: Compound was evaluated for the antibacterial activity against Staphylococcus aureus with the strain beta-Lactamase-positive (LAC+)/beta-Lactamase-negative (LAC-); 2/1. Format: functional.
Series [13] can be described thus: Relative Vmax was reported. Format: ADME.
Series [14] relates to Escherichia coli. The series is described as follows: Compound was evaluated for the antibacterial activity against Escherichia coli (RTEM-organism) at 10e4/10e6 cfu; 0.2/0.4. Format: functional.
The subject of series [15] is Klebsiella aerogenes. Nature of the series: Compound was evaluated for the antibacterial activity against Klebsiella aerogenes with strain K1- at 10e4/10e6 cfu; 0.1/0.4. Format: functional.
The subject of series [16] is Escherichia coli. Nature of the series: Compound was evaluated for the antibacterial activity against Escherichia coli (RTEM+organism) at 10e4/10e6 cfu; 0.1/0.4. Format: functional.
The test system of series [17] is Klebsiella aerogenes. The series is described as follows: Compound was evaluated for the antibacterial activity against Klebsiella aerogenes with strain K1+ at 10e4/10e6 cfu; 0.2/0.8. Format: functional.
Series [18] concerns Klebsiella aerogenes. Nature of the series: Compound was evaluated for the antibacterial activity against Klebsiella aerogenes with strain K1+ at 10e4/10e6 cfu; 6.3/>100. Format: functional.
Series [19] relates to Escherichia coli. Nature of the series: Compound was evaluated for the antibacterial activity against Escherichia coli (RTEM+organism) at 10e4/10e6 cfu; 0.1/0.2. Format: functional.
Series [20] relates to Escherichia coli. Nature of the series: Compound was evaluated for the antibacterial activity against Escherichia coli (RTEM-organism) at 10e4/10e6 cfu; 0.2/0.2. Format: functional.
In series [21] the test system is Klebsiella aerogenes. The series is described as follows: Compound was evaluated for the antibacterial activity against Klebsiella aerogenes with strain K1- at 10e4/10e6 cfu; <0.05/0.1. Format: functional.
For series [22], the system named is Escherichia coli. The series is described as follows: cEscherichia coli with strain NIHJ (beta-Lactamase-negative (LAC-)). Format: functional.
In series [23] the test system is Escherichia coli. Nature of the series: Compound was evaluated for the antibacterial activity against Escherichia coli (RTEM+organism). 10E6 colony forming units are observed. Format: functional.
The subject of series [24] is Staphylococcus aureus. The series is described as follows: Relative hydrolysis rate (RHR) was evaluated against Staphylococcus aureus with the strain FS108. Format: ADME, organism-based.
The test system of series [25] is Staphylococcus aureus. Nature of the series: Compound was evaluated for the antibacterial activity against Staphylococcus aureus with the strains beta-Lactamase-positive (LAC+)/ beta-Lactamase-negative (LAC-); 64/0.03. Format: functional.
The subject of series [26] is Staphylococcus aureus. Nature of the series: Compound was evaluated for the antibacterial activity against Staphylococcus aureus with the strain 209P. Format: functional.
For series [27], the system named is Escherichia coli. Nature of the series: Compound was evaluated for the antibacterial activity against Escherichia coli (RTEM+organism) at 10e4/10e6 colony forming units; 0.8/3.1. Format: functional.

SMILES strings stand for the structures. Converted amounts (≈) assume the structure as drawn.

In general, MIC refers to the lowest concentration found to suppress growth. A higher MIC goes with a less susceptible organism. Take `C#C[C@@H]1[C@H](NC(=O)/C(=N/OC)c2csc(N)n2)C(=O)N1S(=O)(=O)[O-].[K+]`: the MIC is over 100 µg/mL in the series on Klebsiella aerogenes [1], 0.4 µg/mL with Escherichia coli [2], 0.1 µg/mL with Escherichia coli [3] and 0.8 µg/mL in the series on Klebsiella aerogenes [4].
In [5], `CC(C)O/N=C(\C(=O)N[C@H]1CN(S(=O)(=O)[O-])C1=O)c1csc(N)n1.[K+]` yielded an RHR of 7. This compound registered an MIC against Escherichia coli [6] of 25 µg/mL.
In the case of `O=C(Cc1cccs1)N[C@@H]1C(=O)N2C(C(=O)[O-])=C(C[n+]3ccccc3)CS[C@H]12` [CEPHALORIDINE], the RHR in series [5] and in series [9] was 100 each time. Further, the RVmax (in the series with Escherichia coli [7]; in series [8]) was 100 in each case.
As for `CO/N=C(\C(=O)N[C@H]1CN(S(=O)(=O)[O-])C1=O)c1csc(N)n1.[K+]`, the RHR in [5] turned out to be 12; with Escherichia coli [11], 106. In addition, the MIC was 3.1 µg/mL with Escherichia coli [10] and under 0.05 µg/mL against Providencia rettgeri.
As to `COc1cccc(OC)c1C(=O)N[C@@H]1C(=O)N2C1SC(C)(C)C2C(=O)O` (some centres undefined), in the series on Staphylococcus aureus [12], the MIC is 2 µg/mL (≈ 5.26 µM). The compound also gave an RVmax in series [13] of 0.04.
As to `CC[C@@H]1[C@H](NC(=O)/C(=N/OC)c2csc(N)n2)C(=O)N1S(=O)(=O)[O-].[K+]`, the MIC was 0.2 µg/mL against Escherichia coli [14], 0.1 µg/mL in the series on Klebsiella aerogenes [15], 0.1 µg/mL in the series with Escherichia coli [16] and 0.2 µg/mL in the series on Klebsiella aerogenes [17].
Consider `C=C[C@@H]1[C@H](NC(=O)/C(=N/OC)c2csc(N)n2)C(=O)N1S(=O)(=O)[O-].[K+]`, for which the minimal inhibitory concentration (MIC) was 6.3 µg/mL against Klebsiella aerogenes [18], 0.1 µg/mL with Escherichia coli [19], 0.2 µg/mL in the series with Escherichia coli [20] and under 0.05 µg/mL against Klebsiella aerogenes [21].
The compound `Cn1nnnc1SCC1=C(C(=O)O)N2C(=O)C(NC(=O)C(C(=O)O)c3ccc(O)cc3)C2SC1` (centres undefined) returned an RHR in [5] of 0.96. The compound further displayed a minimal inhibitory concentration (MIC) in the series with Escherichia coli [22] of 3.13 µg/mL (≈ 6.18 µM).
On to `CO/N=C(\C(=O)N[C@@H]1C(=O)N2C(C(=O)O)=C(COC(C)=O)C[S@@+]([O-])C12)c1csc(N)n1` (some centres undefined), for which the RHR in series [5] came to 160. In the series on Escherichia coli [23], this compound had an MIC of 1.6 µg/mL (≈ 3.39 µM).
For the compound `CC1(C)S[C@@H]2[C@H](NC(=O)Cc3ccccc3)C(=O)N2[C@H]1C(=O)O` [PENICILLIN G], the RHR in the series with Staphylococcus aureus [24] was 100. Moreover, the MIC in the series with Staphylococcus aureus [25] came to 64 µg/mL (≈ 191 µM); in the series with Staphylococcus aureus [26], 0.065 µg/mL (≈ 0.194 µM). The same compound gave an RVmax in series [13] of 1.
Turning to `CC(C)(O/N=C(\C(=O)N[C@H]1CN(S(=O)(=O)[O-])C1=O)c1csc(N)n1)C(=O)[O-].[K+].[K+]`, in [5], the RHR turned out to be 2.3. Besides, in the series with Escherichia coli [27], the MIC is 0.8 µg/mL.
